For data set [1], the system named is Human microglia cells HMC3. Description: Cell viability test (MTT assay). Type of data set: cell-based. The conditions noted are these: 24 hours incubation, saffron extract 1 or 3 µg/mL, NAC 200 or 600 µM, fish oil 8.5 or 28.5 µg/mL, Figure 1. As to the method: Human microglia cells HMC3 (ATCC® CRL-3304™) were cultured in EMEM (Eagle's minimum essential medium) containing 10% FBS (fetal bovine serum) and PSG (1000 U/ml of Penicillin, 10000 ug/ml of Streptomycin, 29.2 mg/ml of L-Glutamine). The HMC3 cells were placed in 96-well plates with a density of 40,000 cells/well and let to adhere overnight in an incubator at 37°C, 5% CO2. The cells were then treated or not with different concentrations of the substances of the invention (saffron extract (1 µg/mL or 3 µg/mL), NAC (200 µM or 600 µM) or fish oil (8.5 µg/mL or 28.5 µg/mL) dissolved in EMEM with 10% FBS). After 24 hours incubation, cell viability was determined by MTT assay. Then, 10 µL of MTT (5 mg/mL solution) were added to the cells and incubated for 1 hour, followed by removal of the medium and dissolution of the crystals formed in 100 µL of isopropanol. Absorbance at 570 nm was measured with a spectrophotometer (SEAC SIRIO S) and the cell viability was expressed as a percentage of untreated control cells.

A short description of data set [2]: ORAC test (Oxygen Radical Absorbance Capacity). To be noted: single ingredients taken at their percentage composition in the combination; combination = 1000 mg fish oil + 600 mg NAC + 30 mg dry saffron extract; Figure 2. As to the method: The ORAC method was used to assess the antioxidant activity of the substances of the invention by measuring the ability to protect the fluorescent probe (fluorescein) from damage due to peroxyl radical generated by spontaneous decomposition of AAPH (2,2'-azobis (2-amidine-propane) dihydrochloride) at 37°C, with consequent loss of fluorescence. The protective effect of the substances of the invention, alone or in combination, was measured by evaluating the longer area of time/fluorescence intensity under the curve (AUC) of the sample compared to the blank (AUC), wherein substances are not present. Trolox was the antioxidant used as the calibration standard, the ORAC results being expressed as Trolox equivalent micromol/gram of sample (i.e. µmol TE/g). […]
The ORAC test was performed by adding 150 µL of working solution with fluorescein to all the microplate wells, followed by the addition of 25 µL of diluted buffer (white), 50 µL of diluted buffer (control), 25 µL of standard (Trolox 6.25 - 50 µM) or 25 µL of the samples prepared before filling the microplate wells. […] The plate was immediately transferred to the plate reader and the fluorescence was measured every minute for 35 minutes. Fluorescence readings refer to the highest reading of the wells in which no AAPH (controls) is added.
The net AUC of the standards and samples were calculated. […]

SMILES strings stand for the structures.

The values that follow come from patent EP3698777A1, “COMPOSITION FOR PREVENTING AND TREATING DEPRESSIVE AND COGNITIVE SYMPTOMS” (NEURAXPHARM ITALY S.P.A., priority 2019, dated 2020).

`CC(=O)N[C@@H](CS)C(=O)O` [NAC, N-acetylcysteine]: the cell viability entry in data set [1] is given as “do not influence the cell viability”. In data set [2], the “antioxidant activity (ORAC)” value is reported as 24.04 TE µmol/g.
